Test results published in patent US20260373132A1, “PERK INHIBITORHC-5404 IN COMBINATION WITH ANTI-PD-1 ANTIBODY AND/OR AN ANTIANGIOGENETIC AGENT FOR USE IN THE TREATMENT OF CANCER” (HIBERCELL, INC., priority 2022, published 2026).

Key:
[1] = mouse plasma pharmacokinetics after single oral administration; format: in vivo
Protocol: (§1) Initial in vivo studies aimed at understanding the pharmacokinetic and pharmacodynamic (PK/PD) relationship and optimizing the dosing regimen were conducted. HC-5404 was quantified from mouse plasma following a single oral administration (PO) at doses ranging from 3 to 100 mg/kg. […] Mouse plasma protein binding (PPB %) was determined to be 95.6%, which enabled us to calculate the free drug plasma exposure across time (FIG. 18).

[2] = mouse plasma protein binding; format: in vitro ADME; conditions: read-out: Mouse plasma protein binding (PPB %) (converted)
Protocol: as §1

[3] = test system: pPERK in mouse pancreas; assay: pPERK inhibition (PD) in mouse pancreas; format: in vivo
Protocol: The PK/PD relationship was evaluated in mouse pancreas, as the pancreas has elevated pPERK activity that makes it suitable for PD analysis. […] At these concentrations, pPERK inhibition was approximately 90% (FIG. 19).

[4] = test system: pPERK in Caki-1 tumors; assay: pPERK in Caki-1 tumor xenografts; format: in vivo, mouse
Protocol: (§2) Samples were put in 500 μL of Novex lysis buffer consisting of 2× Novex Tris-Glycine SDS sample buffer (ThermoFisher LC2676), 1× Phosphatase Inhibitor Cocktail III (Sigma P0044), 1× PhosphataseArrest I (Gbioscience 113P-D), 1×2-mercaptoethanol (Gibco 21985023), 1× Benzonase (EMD Millipore Corp 70746-3), and 1× Protease inhibitor cocktail tablet (Roche/Sigma 11836170001). Samples were homogenized with the Polytron and heated for 10 min at 95 °C. They were then centrifuged at max speed for 10 min and the supernatant was transferred. Protein concentrations of samples were measured using the Pierce 660 nm Protein assay kit (Thermo Scientific 22660) according to the manufacturer's instructions.
Western Blot analysis was performed on the SimpleWestern high-throughput protein analysis platform (ProteinSimple 004-650) according to manufacturer's protocol using a 12-230 kDA Separation Module (ProteinSimple SM-W004) and Total Protein Detection Module (ProteinSimple DM-TP01). Antibodies used were: (Add info for other antibodies used) pPERK (Lilly; 1:50) and PERK (Cell Signaling Technology 5683; 1:200). All protein analytes were normalized to total protein loaded on capillary. […]

[5] = test system: tumor vasculature and pericyte cells of 786-O xenografts progressed on axitinib; assay: IHC of tumor vasculature and pericytes in 786-O xenografts that progressed on axitinib; format: in vivo, mouse; conditions: 7 days after rerandomization (FIG. 92)
Protocol: Formalin-fixed paraffin-embedded samples were sectioned at 5 μm thickness and mounted on Superfrost Plus microscope slides (Fisher Scientific). All immunohistochemical (IHC) staining was performed on Bond Rx auto-stainer (Leica Biosystems) using the conventional TSA-amplified detection system. Primary antibodies used were as follows: α-CD31 (Abcam #ab182981), α-smooth muscle actin (SMA; Abcam #ab124964), α-Meca32 (Novus Biologicals #NB100-77668). TSA-conjugated Alexa488 and Alexa647 fluorophores from Invitrogen (#B40953 and #B40958) were used at 1:500 dilution. Slides were counterstained with DAPI and cover slipped using Mowiol antifade mounting media (Sigma #D2522).
Slides were imaged with Aperio Versa 200 (Leica Biosystems) whole-slide scanner using 10×/0.32NA objective, and the data were analyzed using custom-written macros in ImageJ/FIJI (NIH). Briefly, 150 μm of outer edges of the tumor sections were eliminated from the analysis. Gaussian-blurred DAPI channel was used to measure the area of the tissue. Scans of […] were processed with median filter to remove noise, then positive areas were measured with appropriate threshold levels. % positive area for each marker was calculated. CD31-SMA double positive areas were measured via image calculation of the binary images. One-way ANOVA and pair-wise comparisons were performed on the data using Prism GraphPad.
After 14 days of treatments, 77 mice bearing the largest tumors were rerandomized into four PD arms (n=8), four efficacy arms (n=10), and 5 tumors sampled on day of rerandomization as a baseline. The remaining animals were removed from study.

[6] = mouse body weight / tolerability; format: in vivo; conditions: 786-O, HC-5404 3, 10, 30 mg/kg BID and/or cabozantinib 30 mg/kg QD (FIG. 53)
Protocol: Body weight and tumor volume were measured twice weekly. Tumor volume was calculated using the formula [tumor volume (mm^3)=π/6×length×width^2] and plotted as means+SEM. The percentage of tumor growth inhibition was calculated at the end of the study using the formula: […], if ΔT>0, ΔT, mean tumor volume of the drug-treated group on the observation day of the study—mean tumor volume of the drug-treated group on initial day of dosing; ΔC, mean tumor volume of the control group on the observation day of the study—mean tumor volume of the control group on initial day of dosing. Regression was calculated using the formula=100×ΔT/Tinitial, if ΔT<0. Animals with >50% regressions were partial responders. Animals with tumor volume of 0 (no measurable tumor) were considered as complete responders, and animals with <50% tumor regression and 30% growth over the baseline were considered as stable disease. Animals with tumors>30% increase over the baseline were considered progressive disease. The % change in body weight was calculated by the formula (body weight on observation day−body weight on initial day)/body weight on initial day×100%.

[7] = test system: ASNS and PSAT1 in MFE280 tumors; assay: ASNS and PSAT1 in MFE280 tumors; format: in vivo, mouse; conditions: 7 days, HC-5404 30 mpk BID
[8] = test system: ATF4 targets in gastric PDX (GAO 114-R19P6); assay: ATF4 target proteins in gastric PDX; format: in vivo, mouse; conditions: 7 days, 1 h post-dose (FIG. 81, 82)
Protocol: as §2
Western Blot analysis was performed on the SimpleWestern high-throughput protein analysis platform (ProteinSimple 004-650) according to manufacturer's protocol using a 12-230 kDA Separation Module (ProteinSimple SM-W004) and Total Protein Detection Module (ProteinSimple DM-TP01). Antibodies used were: (Add info for other antibodies used) pPERK (Lilly; 1:50) and PERK (Cell Signaling Technology 5683; 1:200). All protein analytes were normalized to total protein loaded on capillary.
Gastric PDX model (GAO 114-R19P6) PD arm sampled after 7 days, 1 h post-dose.

free drug (unbound) plasma exposure at Cmax / 1 h ([1]; PO, 30 mg/kg): 355 nM | concentration at 1 h ([1]; plasma, PO, 30 mg/kg): 3670 ng/mL | concentration at 12 h ([1]; plasma, single PO, 100 mg/kg, read-out: plasma exposure up to 12 h after dosing): > 3200 ng/mL | Tmax ([1]; plasma, single PO, 3 to 100 mg/kg, read-out: time of Cmax): < 1 h | unbound plasma concentration at Cmax ([1]; single PO, 100 mg/kg): 1605 nM | unbound plasma exposure up to 12 h after dosing ([1]; single PO, 100 mg/kg): > 311 nM | average half-life ([1]; single PO, 3 to 100 mg/kg): 2.22 h | dose proportionality of exposure ([1]; single PO, up to 100 mg/kg): Dose-proportional increases in exposure | fraction unbound [2]: 0.044
SMILES: Cc1cc(NC(=O)[C@H](O)c2cc(F)cc(F)c2)ccc1-c1cnc(N)c(C(=O)NC(C)C)c1 [HC-5404, (R)-2-amino-5-(4-(2-(3,5-difluorophenyl)-2-hydroxyacetamido)-2-methylphenyl)-N-isopropylnicotinamide]
time until basal pPERK levels restored in pancreas ([3]; 30 mg/kg PO, after dosing): ≤ 12 h | pPERK activity remaining in pancreas ([3]; 100 mg/kg PO, first 12 h): < 20% | inhibition at 30 mg/kg ([3]; Mus musculus, 30 mg/kg PO, 1 h): ~90% | inhibition of p-PERK in pancreas tissue ([3]; PO): time-dependent and dose-dependent inhibition of p-PERK | pPERK expression in Caki-1 ([4]; 30 mg/kg PO BID, seven days (FIG. 30)): strongly inhibited pPERK expression | pPERK levels in Caki-1 ([4]; DC-101 study, 4 days of treatment, low signal-to-noise (FIG. 37)): not affected | proportion of smooth muscle actin (SMA) [5]: decreased | mouse body weight [6]: did not affect mouse body weight | ASNS ([7]; lenvatinib 10 mpk QD (FIG. 79)): induces ASNS | PSAT1 ([7]; lenvatinib 10 mpk QD (FIG. 80)): induces | ATF4 target genes [8]: induces ATF4 target genes, including ASNS, PSAT1 and other enzymes involved in amino acid metabolism
